Patent US11345659B2, “Pipecolic esters for inhibition of the proteasome” (THE BOARD OF REGENTS OF THE UNIVERSY OF TEXAS SYSTEM, priority 2018, dated 2022)

What was measured:
Assay type in all cases: biochemical
[1] = biological target: T1, 20 S human housekeeping proteasome (Homo sapiens, UniProt P25787+P25789); assay: ChT-L peptidase activity of 20 S proteasome activated with Rpt5 peptide; conditions: ChT-L, 20 S activated with Rpt5 peptide; for IC50: Suc-LLVY-AMC substrate, read-out: IC50
T1 construct: purified from erythrocytes; purchased Enzo Life Sciences, Inc. (Farmingdale, N.Y.); host or cells: human erythrocytes
Procedure: (§1) Human housekeeping 20 S and 26 S and complexes purified from erythrocytes were purchased from Enzo Life Sciences, Inc. (Farmingdale, N.Y.). The 1 mg/ml stock 20 S proteasome was diluted to 0.2 mg/ml working solution in 50 mM Tris/HCl, pH 8 containing 20% glycerol (dilution buffer). For the 26 S proteasome stock, the dilution buffer was supplemented with 2 mM ATP, 1 mM MgCl2, and 1 mM DTT (dithiothreitol). The ChT-L peptidase activity was measured as arbitrary intensity units of fluorescence emitted by 7-amino-4-methylcoumarin (AMC) released from the canonical model peptide substrate succinyl-LeuLeuValTyr-methylcoumarin (SucLLVY-MCA; Bachem Bioscience Inc., Philadelphia, Pa.), used at concentration of 100 μM. Free AMC (Sigma-Aldrich, St. Louis, Mo.) was used as the standard. The Rpt5 C-terminal peptide was synthesized (standard solid-phase peptide chemistry) and purified to at least 98% purity by GenScript (Piscataway, N.J.). The Rpt5 peptide and the peptide substrate were dissolved in dimethylsulfoxide (DMSO) and such stock solutions were stored at −20° C. The total concentration of DMSO in final reaction mixtures never exceeded 3% (vol/vol).
The reaction was carried out in 96-well plates, in 100 μL of reaction mixture, for 1 hour at 37° C. In the case of 20 S proteasome, the reaction mixture consisted of 45 mM Tris/HCl, pH 8, 100 mM KCl with premixed 10 μM Rpt5 peptide and 100 μM Suc-LLVY-MCA, to which 200 ng (nearly […]) of proteasome and desired concentration of tested compounds in 1 μL of DMSO were added. To test the activity of 26 S proteasome under conditions challenging coordination of the three pairs of peptidase active centers, a mixture of three canonical substrates specific for the ChT-L (SucLLVY-MCA), trypsin-like (T-L; BocLRR-MCA) and caspase-like (Casp-L; Z-LLE-MCA) was used with each of the substrates at 33.3 μM (100 μM of the total substrate concentration). The reaction mixture in this case consisted of 50 mM Tris/HCl, pH 8, 20 mM NaCl, premixed with the substrates and 2 mM ATP, to which 200 ng (nearly 0.1 nmol) of the 26 S working solution and desired concentration of tested compounds in 0.5 μL of DMSO were added. The reaction rates were calculated from a linear segment of kinetic curves constructed from measurements in 1-minutes intervals (Fluoroskan Ascent plate reader; Thermo Fisher Scientific Inc., Waltham, Mass.). Reaction rates were calculated using a linear fit executed by Slope Analyzer and Enzyme Kinetics applications launched within Origin Pro 2017 (OriginLab). Specific activity of the control 20 S proteasome activated with the Rpt5 peptide was in the range of 1.4 to 2.3 nanomoles of AMC product released by 1 mg of 20 S per second (1.95±0.24; n=18). Specific activity of the control 26 S proteasome challenged with three substrates reached on average 0.28±0.06 nanomoles of AMC product released by 1 mg of the enzyme per second (n=6). For comparison, degradation of the canonical Suc-LLVY-MCA substrate by the control 26 S proteasome preceded with a rate in the range of 0.6-0.8 nanomoles of AMC released per mg of the enzyme per second. The data are presented as mean±SD or as a representative set from at least 3 independent experiments.
The compounds were evaluated using the 20 S human housekeeping proteasome. It was activated with the Rpt5 derived 10-residue peptide that contains the C-terminal HbYX (hydrophobic-Tyr-any AA) motif activating the proteasome in trans and to some extend mimic the activation by the 19 S regulatory particle (Osmulski and Gaczynska (2013) Molecular pharmacology 84: 104-113; Smith et al. (2006) J. Struct. Biol. 156: 72-83; Smith et al. (2007) Mol. Cell 27: 731-744). Proteolytic activity was monitored over time using a fluorogenic peptide substrate specific for the chymotrypsin-like active center (ChT-L, Suc-LLVY-AMC) in the presence of a concentration range of the inhibitors. […]

26 S proteasome = biological target: T2, 26 S proteasome (Homo sapiens, UniProt P25787+P25789); assay: 26 S proteasome challenged with mixture of three substrates (surrogate proteinase assay); conditions: mixture of ChT-L, T-L and Casp-L substrates, 33.3 μM each; read-out: IC50, 26 S proteasome with substrates for all three peptidases
T2 construct: purified from erythrocytes; purchased Enzo Life Sciences, Inc. (Farmingdale, N.Y.); host or cells: human erythrocytes
Procedure: as §1
The reaction was carried out in 96-well plates, in 100 μL of reaction mixture, for 1 hour at 37° C. In the case of 20 S proteasome, the reaction mixture consisted of 45 mM Tris/HCl, pH 8, 100 mM KCl with premixed 10 μM Rpt5 peptide and 100 μM Suc-LLVY-MCA, to which 200 ng (nearly […]) of proteasome and desired concentration of tested compounds in 1 μL of DMSO were added. […] The reaction rates were calculated from a linear segment of kinetic curves constructed from measurements in 1-minutes intervals (Fluoroskan Ascent plate reader; Thermo Fisher Scientific Inc., Waltham, Mass.). Reaction rates were calculated using a linear fit executed by Slope Analyzer and Enzyme Kinetics applications launched within Origin Pro 2017 (OriginLab). […]

[2] = biological target: T3, latent core 20 S proteasome (Homo sapiens, UniProt P25787+P25789); assay: Competition of compound 3 with tRpt6 peptide, ChT-L activity of latent core; conditions: 2 μM tRpt6
T3 construct: purified from erythrocytes; purchased Enzo Life Sciences, Inc. (Farmingdale, N.Y.); host or cells: human erythrocytes
From the text: According to the most recent model of the 26 S proteasome dynamic cycle, Rpt6 succeeds the Hb-Y—X containing anchor subunits Rpt5, Rpt3, and Rpt2 in docking into the α face pockets and promoting an intermediate conformation between latent and activated (open gate) proteasomes (Dong et al. ([…]) Nature 565(7737): 49-55). […] For comparison, no competition between tRpt5, expected to occupy the α5/α6 pocket, and compound 3 was detected.
Referring to FIG. 4, the C-terminal peptide derived from Rpt6 subunit compromises inhibition of the ChT-L activity of the latent core by the compound 3; however, only when added to the proteasome prior to the inhibitor. […] 1 μM compound 3 and 2 μM tRpt6 were tested. Mean±SD; n=3 to 6.

Row | ChT-L inhibitory activity in words [1] | IC50 [1] [µM] | IC50 (26 S proteasome) [µM] | effect of peptide alone on proteasome activity [2] | Molecule
1 | completely abrogated activity | > 50 | – | – | COC(=O)N1CCCC[C@H]1C(=O)OCCCc1cc(OC)c(OC)c(OC)c1 [Compound 5, 1-methyl 2-(3-(3,4,5-trimethoxyphenyl)propyl) (S)-piperidine-1,2-dicarboxylate]
2 | – | 2.6 | > 60 | – | O=C(OCCCc1ccccc1)[C@@H]1CCCCN1C(=O)OCc1ccccc1 [Compound 9, 1-benzyl 2-(3-phenylpropyl) (S)-piperidine-1,2-dicarboxylate]
3 | inactive | > 50 | – | – | O=C(O)[C@@H]1CCCCN1C(=O)OCc1ccccc1 [Compound 11, 1-((benzyloxy)carbonyl) (S)-piperidine-2-carboxylic Acid]
4 | inactive | > 50 | – | – | CCCOC(=O)[C@@H]1CCCCN1C(=O)OCc1ccccc1 [Compound 10, 1-benzyl 2-propyl (S)-piperidine-1,2-dicarboxylate]
5 | significantly reduced its activity | 20.1 | – | – | COc1cc(CCOC(=O)[C@@H]2CCCCN2C(=O)OCc2ccccc2)cc(OC)c1OC [Compound 7, 1-benzyl 2-(3,4,5-trimethoxyphenethyl) (S)-piperidine-1,2-dicarboxylate]
6 | – | – | – | did not affect the proteasome activity | tRpt6: 10-residue peptide derived from C-terminal fragment of Rpt6 (KNMSIKKLWK) [reference compound]
7 | only had modest activity | 23.8 | – | – | COc1cc(CCCOC(=O)[C@@H]2CCCN2C(=O)OCc2ccccc2)cc(OC)c1OC [Compound 12, 1-benzyl 2-(3-(3,4,5-trimethoxyphenyl)propyl) (S)-pyrrolidine-1,2-dicarboxylate]
8 | decreased activity | 33.5 | – | – | O=C(OCc1ccccc1)[C@@H]1CCCN1C(=O)OCc1ccccc1 [Compound 15, Dibenzyl (S)-pyrrolidine-1,2-dicarboxylate]
9 | – | 14.7 | – | – | COc1cc(CCCOC(=O)[C@@H]2CCCN(C(=O)OCc3ccccc3)C2)cc(OC)c1OC [Compound 6, 1-benzyl 3-(3-(3,4,5-trimethoxyphenyl)propyl) (R)-piperidine-1,3-dicarboxylate]
10 | decreased activity | 19.2 | – | – | O=C(OCCc1ccccc1)[C@@H]1CCCN1C(=O)OCc1ccccc1 [Compound 14, 1-benzyl 2-phenethyl (S)-pyrrolidine-1,2-dicarboxylate]
11 | – | 6.6 | – | – | O=C(OCCCc1ccccc1)[C@@H]1CCCN1C(=O)OCc1ccccc1 [Compound 13, 1-benzyl 2-(3-phenylpropyl) (S)-pyrrolidine-1,2-dicarboxylate]
12 | – | 11.5 | – | – | COc1cc(CCCOC(=O)C2CCCCN2C(=O)OCc2ccccc2)cc(OC)c1OC (racemic) [Compound 2, 1-benzyl 2-(3-(3,4,5-trimethoxyphenyl)propyl)piperidine-1,2-dicarboxylate]
13 | significantly reduced its activity | 19.8 | – | – | COc1cc(COC(=O)[C@@H]2CCCCN2C(=O)OCc2ccccc2)cc(OC)c1OC (stereo in doubt) [Compound 8, 1-benzyl 2-(3,4,5-trimethoxybenzyl) piperidine-1,2-dicarboxylate]
14 | – | 15.2 | – | – | COc1cc(CCCOC(=O)[C@@H]2CCCCN2C(=O)OCC(C)C)cc(OC)c1OC [Compound 4, 1-isobutyl 2-(3-(3,4,5-trimethoxyphenyl)propyl) (S)-piperidine-1,2-dicarboxylate]
